The term ED50 denotes the dose that gives a 50% effect, or the effect in half of the subjects.

The test system of one data set is carrageenin edema. Nature of the data set: Inhibitory effect on carrageenin edema (oral administration). It counts as in vivo, rat (Sprague-Dawley strain). The following applies: for ED40: Rattus norvegicus, po, 3 h. Here is the method:
Inhibitory effect on carrageenin edema.
The experiment was carried out according to a method conforming to Van Arman, C. […] One hour after the administration of the test compound, 0.1 ml of 1% carrageenin solution in physiological saline was injected subcutaneously into the plantar sarface of the right hind paws of the rats. One hour after injection of carrageenin, the volume of the injected paws was measured hourly for 4 hours. Inhibition percent to carrageenin edema (%)* was calculated in comparison with the volume of paws of rats of a control group, to which only 0.3% CMC-Na solution was orally administered. [formula]

The subject of data set [1] is gastric mucosa. The data set can be described thus: Effect on gastric mucosa (2) (oral administration). Type of data set: in vivo, rat (Sprague-Dawley strain). Particulars: rats, 4 hours. Here is the method:
4 Hours after the administration, the rat was sacrificed with ether, and its stomach was removed. The stomach was treated with 5% formalin for 3 minutes, and gastric mucosa was observed under a stereoscopic microscope. When gastric lesion in the mucosa was found, the number of the lesion in the mucosa was counted.

Data set [2] in a line: Stability on storage at 50° C. and humidity of 70% for 1 month. Type of data set: physicochemical. Particulars: among the compounds (I). The protocol: For example, when the compounds (I) are kept at temperature of 50° C., and humidity of 70% for 1 month, no substantial change with respect to their appearances and values of quantitative analysis was observed, and no decomposition product was detected by thin-layer chromatography. Thus compounds (I) are prepared for administration in the form of pharmaceutical compositions according to conventional methods in the field of the art, and it is possible to prepare a pharmaceutical composition which comprises a therapeutically effective amount of at least one compound of the general formula (I) as an active ingredient, i.e. anti-inflammatory composition, in solid administration form (e.g. tablets, granules, powders, capsules, suppository), and liquid administration form (e.g. suspension, emulsion). In that case, as carrier, vehicle, solvent or dispersant, there may be used any of those which are known in the field of art. There may be exemplified water, starch, lactose, crystalline cellulose, magnesium stearate, hydroxypropyl cellulose, mannitol, carboxymethyl cellulose, glycol, ethanol, corn oil, peanut oil, castor oil, cacao butter, isocacao, polyoxyethylene stearate. […]

In data set [3] the test system is gastric mucosa. Nature of the data set: Effect on gastric mucosa (1) (oral administration). Type of data set: in vivo, mouse (ddY-strain). The arrangement: unit not given here. The following applies: mice, 4 hours. The protocol: 4 Hours after the administration, the mouse was sacrificed with ether, and its stomach was removed. The stomach was treated with 5% formalin for 3 minutes, and gastric mucosa was observed under a stereoscopic microscope. When gastric lesion in the mucosa was found, the length of each lesion was measured. Degree of gastric damage (i.e. GD50)* was calculated on the basis of the length of the lesion of each mouse.
Remark *: GD50 : The value corresponding to the relative frequency of 50% on the normal probability paper plotted the length of gastric lesions of each mouse.

Data set [4] relates to febrile body temperature (Brewer's yeast). Nature of the data set: Antipyretic activity (oral administration). It counts as in vivo, rat (Sprague-Dawley strain). Particulars: 30 mg/Kg. The protocol: Antipyretic activity (oral administration)
According to a method conforming to Winter, C. A. et al [The Journal of Pharmacology and Experimental Therapeutics 133, 117, (1961)], 20% Brewer's yeast suspension in physiological saline was injected subcutaneously to 5 male rats in each group (Sprague-Dawley strain) weighing 200 to 250 g in an amount of 1.0 ml per 100 g of body weight of the rat. After fasting for 18 hours, each test compound suspended in 1% gum arabic solution was administered orally to the rats in an amount of 1.0 ml per 100 g of body weight. Then, the rectal temperature of the rats was taken.

Data set [5] relates to writhing syndrome due to acetic acid. Nature of the data set: Analgesic activity, stretching method (oral administration). Type of data set: in vivo, mouse (ddY-strain). The protocol: The experiment was carried out according to a method conforming to Koster R. et al [Federation Proceedings 18, 412, (1960)]. […] 30 Minutes after administration of the test compound, 0.6% acetic acid aqueous solution was injected intraperitoneally to the mice in an amount of 0.1 ml per 10 g of body weight of the mouse, and then frequency of writhing syndrome due to acetic acid was counted for 20 minutes. Inhibition percent to the writhing syndrome was calculated in comparison with frequency of writhing syndrome counted on mice of a control group, to which only 1% gum arabic solution was orally administered.

For data set [6], the system named is pain threshold of hind paws (Brewer's yeast). Nature of the data set: Analgesic activity, Randall and Selitto method (oral administration). Type of data set: in vivo, rat (Sprague-Dawley strain). Particulars: Rattus norvegicus; oral, Litchfield-Wilcoxon method, from increasing percent of pain threshold. The protocol:
Randall and Selitto method
According to a method conforming to Randall, L. O. and Selitto, J. J. [Archives Internationales de Pharmacodynamie et de Therapie, 111, 409, (1957)], 0.1 ml of 10% Brewer's yeast suspension in physiological saline was injected subcutaneously into the plantar surface of the right hind paws of 5 male rats in each group (Sprague-Dawley strain) weighing 90 to 110 g. 2 Hours after administration of the yeast suspension, each test compound suspended in 0.3% CMC-Na solution was orally administered to the rats in an amount of 1.0 ml per 100 g of body weight of the rat. 30 Minutes, 60 minutes and 120 minutes after administration of the test compounds, threshold values of left and right hind paws of the rats were measured by an electric pressure device made by Daiwa Kinzoku Co., Ltd. (Japan). The change of threshold was obtained by comparing the pain threshold obtained in a group after the yeast injection with that obtained before the yeast injection, in the same group as above. Increasing percent of pain threshold of the test compound was calculated on the basis of the mean changes of threshold of the test group and of that of the control group. Rats of the control group were administered orally only 0.3% CMC-Na solution.
According to the Litchfield-Wilcoxon method [The Journal of Pharmacology and Experimental Therapeutics, 96, 96, (1949)], ED50 value was calculated as follows on the basis of the increasing percent of pain threshold;

For the next data set, the system named is adjuvant arthritis. Nature of the data set: Inhibition to adjuvant arthritis (oral administration). Type of data set: in vivo, rat (Sprague-Dawley strain). The following applies: for Increase in body weight / Weight of the organs: Adrenal glands / Weight of the organs: Spleen / Weight of the organs: Thymus: once a day for 7 days. The protocol: Inhibition to adjuvant arthritis.
According to a method conforming to Fujihira et al [Oyo Yakuri, 5, 169, (1971)], liquid paraffin suspension of Mycobacterium butiricum (hereinafter abbreviated as adjuvant) was injected subcutaneously to right hind paws of male rats (Spraque-Dawley strain) weighing 150 to 170 g in an amount of 0.3 mg/0.05 ml/rat. 14 Days after adjuvant injection, the rats, paws of which swelled to a similar degree, were selected and they were separated into groups. From the 15th day after adjuvant injection, each test compound suspended in 0.3% CMC-Na solution was orally administered once a day for 7 days to the 7 rats in each group in the dose shown in the following table 2.
The 16th, 19th and 22nd days after adjuvant injection the volume of left hand paws (i.e. paws not treated with the adjuvant) of the rats and their body weight were measured. Inhibition percent to the arthritis (edema) is calculated according to the same equation as that used in Experiment 1, and the value of ED40 is calculated on the basis of the inhibition percent. Then the rats were sacrificed with ether and the weight of their thymus, adrenal glands and spleen was determined.

[7] abbreviates: 50 mg/Kg oral, 3 hour after administration.
Where [8] appears, read: 100 mg/Kg oral, 3 hour after administration.
Setting [9] is: 100 mg/Kg oral, 4 hour after administration.

`CC(C(=O)C(=O)O)c1ccc(N2Cc3ccccc3C2=O)cc1` (centres unmarked) [2-Oxo-3-[4-(1-oxo-2-isoindolinyl)phenyl]butanoic acid]: the “Inhibition to carrageenin edema” value with carrageenin edema (setting [7]) was found to be 22.5%; with carrageenin edema (setting [8]) it was 53.2%. Also, the “Mean number of gastric lesion” value in the data set with gastric mucosa [1] (25 mg/Kg oral) worked out at 0; in the data set with gastric mucosa [1] (50 mg/Kg oral), 0; with gastric mucosa [1] (100 mg/Kg oral), 1.0. Besides, in data set [2], the “Stability (in words)” value is given as “more stable”.
As to `CC(=O)Oc1ccccc1C(=O)O` [Aspirin], the “Degree of gastric damage (GD50)” value in the data set with gastric mucosa [3] (100 mg/Kg oral) came to 2.0; in the data set on gastric mucosa [3] (200 mg/Kg oral), 16.1; in the data set with gastric mucosa [3] (282 mg/Kg oral), 18.6; in the data set with gastric mucosa [3] (400 mg/Kg oral), 31.2. Further, the “Mean number of gastric lesion” value in the data set on gastric mucosa [1] (12.5 mg/Kg oral) was 1.0; in the data set with gastric mucosa [1] (25 mg/Kg oral) it was 1.0; in the data set on gastric mucosa [1] (50 mg/Kg oral), 5.4; in the data set with gastric mucosa [1] (100 mg/Kg oral), 15.0. Moreover, the “Drop of febrile body temperature” value in data set [4] turned out to be 1 °C. The “Inhibition to writhing syndrome” value amounted to 0% in data set [5] (100 mg/Kg oral), 43% in data set [5] (200 mg/Kg oral) and 70% in data set [5] (400 mg/Kg oral).
`CC(C)Cc1ccc(C(C)C(=O)O)cc1` (centres unmarked) [Ibuprofen]: the “Inhibition to carrageenin edema” value in the data set on carrageenin edema (setting [7]) was found to be 19.2 ± 22.0%; in the data set on carrageenin edema (50 mg/Kg oral, 4 hour after administration), 23.5 ± 14.2%; in the data set with carrageenin edema (setting [8]), 42.2 ± 0.3%; in the data set with carrageenin edema (setting [9]), 33.7 ± 3.1%; with carrageenin edema (200 mg/Kg oral, 3 hour after administration) it was 43.9 ± 1.0%; with carrageenin edema (200 mg/Kg oral, 4 hour after administration) it was 37.1 ± 4.7%. In addition, in the data set with carrageenin edema, the ED40 amounted to 90 mg/kg. The 50% effect level in data set [6] (ED50) was put at a dose of 130 mg/kg. Moreover, the “Inhibition to adjuvant arthritis” value with adjuvant arthritis (25 mg/Kg oral, 1st day) amounted to 25.6%; in the data set with adjuvant arthritis (25 mg/Kg oral, 4th day), 15.7%; in the data set with adjuvant arthritis (25 mg/Kg oral, 7th day), 32.0%; with adjuvant arthritis (100 mg/Kg oral, 1st day), 28.1%; with adjuvant arthritis (100 mg/Kg oral, 4th day), 37.3%; with adjuvant arthritis (100 mg/Kg oral, 7th day), 53.4%. Besides, the “Increase in body weight” value in the data set on adjuvant arthritis (25 mg/Kg oral) was 26.7 g; in the data set on adjuvant arthritis (100 mg/Kg oral), 16.0 g. The entries for the “Weight of the organs: Adrenal glands” value in the data set on adjuvant arthritis (25 mg/Kg oral) and in the data set on adjuvant arthritis (100 mg/Kg oral) were 13.7 ± 0.9 mg/100g of body weight and 15.3 ± 1.7 mg/100g of body weight, respectively. The “Weight of the organs: Spleen” value in the data set with adjuvant arthritis (25 mg/Kg oral) is given as 420.5 ± 34.9 mg/100g of body weight; in the data set on adjuvant arthritis (100 mg/Kg oral) it was 438.0 ± 40.0 mg/100g of body weight. Also, the “Weight of the organs: Thymus” value with adjuvant arthritis (25 mg/Kg oral) is 143.3 ± 8.9 mg/100g of body weight; in the data set on adjuvant arthritis (100 mg/Kg oral), 127.8 ± 20.7 mg/100g of body weight.
On to `CCCCC1C(=O)N(c2ccccc2)N(c2ccccc2)C1=O` [Phenylbutazone], for which the “Inhibition to carrageenin edema” value is on record as 12.0 ± 5.5% with carrageenin edema (12.5 mg/Kg oral, 3 hour after administration); 19.9 ± 3.7% in the data set on carrageenin edema (12.5 mg/Kg oral, 4 hour after administration); 9.6 ± 8.3% in the data set with carrageenin edema (25 mg/Kg oral, 3 hour after administration); 14.3 ± 4.7% with carrageenin edema (25 mg/Kg oral, 4 hour after administration); 54.3 ± 2.0% in the data set on carrageenin edema (setting [8]); 50.7 ± 6.0% in the data set with carrageenin edema (setting [9]). For the same compound, the ED40 in the data set with carrageenin edema is 62 mg/kg. In addition, the “Degree of gastric damage (GD50)” value is listed as 5.2 with gastric mucosa [3] (100 mg/Kg oral), 10.0 in the data set with gastric mucosa [3] (200 mg/Kg oral) and 13.0 in the data set on gastric mucosa [3] (282 mg/Kg oral). Further, the “Mean number of gastric lesion” value with gastric mucosa [1] (50 mg/Kg oral) turned out to be 0.2; in the data set with gastric mucosa [1] (100 mg/Kg oral), 4.2; with gastric mucosa [1] (200 mg/Kg oral) it was 9.6. Also, the 50% effective dose (ED50) in data set [6] was 250 mg/kg. Moreover, the entries for the “Inhibition to writhing syndrome” value in data set [5] (100 mg/Kg oral), in data set [5] (200 mg/Kg oral) and in data set [5] (400 mg/Kg oral) were 10%, 15% and 61%, respectively. Besides, the “Inhibition to adjuvant arthritis” value was 32.2% in the data set on adjuvant arthritis (25 mg/Kg oral, 1st day); 28.8% in the data set on adjuvant arthritis (25 mg/Kg oral, 4th day); 38.3% in the data set on adjuvant arthritis (25 mg/Kg oral, 7th day); 34.3% in the data set with adjuvant arthritis (100 mg/Kg oral, 1st day); 37.9% with adjuvant arthritis (100 mg/Kg oral, 4th day); 51.6% with adjuvant arthritis (100 mg/Kg oral, 7th day). For the same compound, the figures for the “Increase in body weight” value in the data set with adjuvant arthritis (25 mg/Kg oral) and with adjuvant arthritis (100 mg/Kg oral) were 30.9 g and 31.4 g, respectively. The “Weight of the organs: Adrenal glands” value in the data set on adjuvant arthritis (25 mg/Kg oral) is reported as 13.2 ± 1.9 mg/100g of body weight; with adjuvant arthritis (100 mg/Kg oral), 12.0 ± 1.0 mg/100g of body weight. Also, the “Weight of the organs: Spleen” value in the data set with adjuvant arthritis (25 mg/Kg oral) was 441.7 ± 29.9 mg/100g of body weight; in the data set on adjuvant arthritis (100 mg/Kg oral) it was 444.0 ± 39.6 mg/100g of body weight. Besides, the “Weight of the organs: Thymus” value in the data set on adjuvant arthritis (25 mg/Kg oral) is given as 141.6 ± 12.5 mg/100g of body weight; in the data set on adjuvant arthritis (100 mg/Kg oral), 146.2 ± 14.8 mg/100g of body weight.

These data come from patent US4166125A, “2-Oxo-phenylbutanoic acid derivatives” (Grelan Pharmaceutical Co., Ltd., priority 1977, dated 1979).
